Series [1] has as its system Rattus norvegicus. As to the kind of experiment: Toxicity in STZ-induced diabetic Wistar rat model assessed as increase in body weight at 30 mg/kg, po repeated for 15 days […]. The settings on record: in vivo, 360 h. It counts as organism-based.
For series [2], the system named is Rattus norvegicus. The experiment in a line: Antidiabetic activity in STZ-induced diabetic Wistar rat model assessed as reduction in blood glucose level at 30 mg/kg, po repeated for 15 days by GOD-POD method. In kind it is functional, organism-based.
For series [3], the target named is T1, Peroxisome proliferator-activated receptor gamma (Homo sapiens) (UniProt P37231).
T1 sequence (whole entry): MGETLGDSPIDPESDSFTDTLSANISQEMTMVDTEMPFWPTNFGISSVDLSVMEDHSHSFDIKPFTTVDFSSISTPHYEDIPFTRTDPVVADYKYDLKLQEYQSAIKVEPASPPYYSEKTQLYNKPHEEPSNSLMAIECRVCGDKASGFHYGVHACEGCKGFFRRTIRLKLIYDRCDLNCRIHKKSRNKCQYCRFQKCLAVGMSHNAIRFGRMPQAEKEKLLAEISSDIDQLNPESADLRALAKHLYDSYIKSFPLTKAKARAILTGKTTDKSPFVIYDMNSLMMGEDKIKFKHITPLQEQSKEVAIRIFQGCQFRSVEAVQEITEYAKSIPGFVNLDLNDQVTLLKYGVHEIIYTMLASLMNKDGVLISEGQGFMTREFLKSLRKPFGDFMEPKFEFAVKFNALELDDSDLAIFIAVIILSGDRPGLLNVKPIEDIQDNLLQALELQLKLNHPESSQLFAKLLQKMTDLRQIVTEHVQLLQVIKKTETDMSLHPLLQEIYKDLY
As to the kind of experiment: Agonist activity at PPARgamma (unknown origin) expressed in HEK293 cells assessed as receptor transactivation at 10 uM incubated for 24 hrs by luciferase reporter gene assay. In kind it is cell-based.

Series [4] concerns Rattus norvegicus. As to the kind of experiment: Antidiabetic activity in Wistar rat assessed as reduction in blood glucose level at 30 mg/kg, po dosed 30 mins before glucose challenge and measured 30 and 60 mins post glucose challenge by OGTT method. In kind it is functional, organism-based.
Series [5] concerns Rattus norvegicus. As to the kind of experiment: Antidiabetic activity in Wistar rat assessed as reduction in blood glucose level at 36 mg/kg, po dosed 30 mins before glucose challenge and measured 30 and 60 mins post glucose challenge by OGTT method. In kind it is functional, organism-based.
Series [6] concerns Rattus norvegicus. As to the kind of experiment: Toxicity in STZ-induced diabetic Wistar rat model assessed as increase in body weight at 36 mg/kg, po repeated for 15 days […]. It counts as organism-based. To be noted: in vivo, 360 h.
Another series relates to 3T3-L1. The experiment in a line: Increase in PPARgamma mRNA expression in mouse 3T3L1 cells at 10 uM incubated for 24 hrs by RT-PCR method. It counts as functional.
Series [7] relates to Rattus norvegicus. The experiment in a line: Antidiabetic activity in STZ-induced diabetic Wistar rat model assessed as reduction in blood glucose level at 36 mg/kg, po repeated for 15 days by GOD-POD method. It counts as functional, organism-based.

Calls of active or inactive are those of the source. The calls are words filed in the database; no cut-off is given here.

In the case of `COc1ccc(C2CC(c3cc4ccccc4oc3=O)=NN2c2ccc(S(=O)(=O)NC(=S)NCc3ccccc3)cc2)cc1` (stereo not given), the Activity entry in the series with Rattus norvegicus [1] is “Non-toxic”. Further, the result (in the series with Rattus norvegicus [2]; in series [3]; in the series with Rattus norvegicus [4]) was Active.
With `Cc1ccccc1NC(=O)NS(=O)(=O)c1ccc(N2N=C(c3ccco3)CC2c2ccc(N(C)C)cc2)cc1` (stereo not given), in the series with Rattus norvegicus [1], the Activity result is “Non-toxic”. Also, the result (with Rattus norvegicus [2]; in series [3]; in the series with Rattus norvegicus [4]) was Active.
As for `COc1ccc(NC(=O)NS(=O)(=O)c2ccc(N3N=C(c4ccco4)CC3c3ccc(N(C)C)cc3)cc2)cc1` (stereo not given), the result in the series on Rattus norvegicus [4] was Active.
`CN(CCOc1ccc(CC2SC(=O)NC2=O)cc1)c1ccccn1` (stereo not given) [ROSIGLITAZONE]: the outcome (in the series with Rattus norvegicus [5]; in the series with Rattus norvegicus [7]; in series [3]) was Active. Further, the Activity result with Rattus norvegicus [6] is on record as “Toxic”. Further, the “fold change (FC)” value with 3T3-L1 was determined as 1.52.
`CN(C)c1ccc(C2CC(c3ccco3)=NN2c2ccc(S(=O)(=O)NC(=O)NCc3ccccc3)cc2)cc1` (stereo not given): the Activity entry in the series with Rattus norvegicus [1] is “Non-toxic”. Moreover, the outcome (with Rattus norvegicus [2]; in series [3]; with Rattus norvegicus [4]) was Active.
For `COc1ccc(Cl)cc1C(=O)NCCc1ccc(S(=O)(=O)NC(=O)NC2CCCCC2)cc1` [GLYBURIDE], the “fold change (FC)” value in the series on 3T3-L1 was 1.01. The Activity entry in the series on Rattus norvegicus [1] is “Toxic”. The result (with Rattus norvegicus [2]; in series [3]; in the series with Rattus norvegicus [4]) was Active.
Take `COc1ccc(NC(=S)NS(=O)(=O)c2ccc(N3N=C(c4ccco4)CC3c3ccc(N(C)C)cc3)cc2)cc1` (stereo not given): the result in the series on Rattus norvegicus [4] was Active.
As for `Cc1ccccc1NC(=O)NS(=O)(=O)c1ccc(N2N=C(c3cc4ccccc4oc3=O)CC2c2ccc(N(C)C)cc2)cc1` (stereo not given), the “fold change (FC)” value with 3T3-L1 is recorded as 1.13. Besides, in the series with Rattus norvegicus [1], the Activity result is “Non-toxic”. In addition, the result (with Rattus norvegicus [2]; in series [3]; with Rattus norvegicus [4]) was Active.
Regarding `COc1ccc(C2CC(c3ccco3)=NN2c2ccc(S(=O)(=O)NC(=O)Nc3ccccc3C)cc2)cc1` (stereo not given), the result in the series with Rattus norvegicus [4] was Active.

For the origin of these results see ChEMBL document CHEMBL3621178, “Antidiabetic effect of novel benzenesulfonylureas as PPAR-γ agonists and their anticancer effect” (Bioorg Med Chem Lett, 2015).
